Measured values as given in US10717757B2, “Ketolides having antibacterial activity” (BIOPHARMATI SA, priority 2016, dated 2020).
Values after ≈ are worked out from the molar mass of the structure shown. Values joined by “and” are separate entries in the source; they are usually repeats but may differ in a detail not shown here. Equal entries are not always repeated.

Tests used:
[1] = tested on: S. pneumoniae ATCC 49619 (CLSI QC strain); test: Minimum inhibitory concentration (MIC), broth microdilution, QC strain; format: cell-based, Streptococcus pneumoniae; conditions: MIC in duplicates
Description: (§1) Protocols for Determining Minimum Inhibitory Concentration (MIC) of Test Compounds Against Streptococcus Pneumoniae Strains
(§2) The test strains are revived from frozen stock on blood agar plates and incubated at 35±2° C. for 18-20 hours in 5% CO2. Colonies are directly suspended from an overnight grown agar culture in CAMHB/saline and optical density adjusted to 0.5 McFarland turbidity standard (1-2×10^8 cfu/mL). Adjusted cultures are further diluted 1:100 using CAMHB such that after inoculation each well finally contains ˜5×10^5 cfu/mL. For broth dilution testing of Streptococcus species, CAMHB is supplemented with 2.5-5% v/v LHB. Colony counts of inoculum suspension is estimated by ten-fold serial dilutions and plating each dilution on agar plate. After incubation, the plates are observed for growth and microbial counts determined.
(§3) Compounds are weighed and dissolved in water/DMSO/other solvent to yield 1 mg/mL stock solution. Serial two-fold dilutions of the test compounds and reference antibiotics are prepared. 50 μL of the diluted drug solutions are dispensed in wells of microtiter trays (96 well).
(§4) To each of the wells of the microtiter tray, 50 μL of the diluted organism are inoculated to obtain a final inoculum density of ˜5×10^5 cfu/mL. Broth control, compound control and organism control wells are set up.
(§5) MIC testing are done in duplicates
(§6) MIC is defined as the lowest concentration of an antimicrobial agent that prevents visible growth of a microorganism in broth dilution susceptibility test.
(§7) After incubation period, growth of organism in the wells are detected by unaided eye facilitated by a viewing device. The amount of growth in the drug-containing wells are compared with the amount of growth in the organism-control wells.

[2] = tested on: S. pneumoniae AUCC479, macrolide & penicillin sensitive; test: Minimum inhibitory concentration (MIC), broth microdilution, AUCC479; format: cell-based, Streptococcus pneumoniae
Description: as §1, §2, §3, §4, §5, §6, §7

[3] = tested on: S. pneumoniae AUCC488, macrolide & penicillin resistant; test: Minimum inhibitory concentration (MIC), broth microdilution, AUCC488; format: cell-based, Streptococcus pneumoniae
Description: as §1, §2, §3, §4, §5, §6, §7

[4] = tested on: S. pneumoniae AUCC489, macrolide & penicillin resistant; test: Minimum inhibitory concentration (MIC), broth microdilution, AUCC489; format: cell-based, Streptococcus pneumoniae
Description: as §1, §2, §3, §4, §5, §6, §7

[5] = tested on: S. pneumoniae AUCC483, macrolide resistant & penicillin sensitive; test: Minimum inhibitory concentration (MIC), broth microdilution, AUCC483; format: cell-based, Streptococcus pneumoniae
Description: as §1, §2, §3, §4, §5, §6, §7

[6] = Oral bioavailability and tissue distribution after a single oral treatment; format: in vivo
[7] = tested on: macrolide-resistant S. pneumoniae strains; test: Mouse lung infection models; format: in vivo
CYP3A4 [8] = target: T1, CYP3A4 (Homo sapiens, UniProt P08684); test: Cytochrome P4503A4 inhibition assay, human liver microsomes, LC-MS/MS probe substrate method; conditions: for IC50: read-out: IC50 CYP3A4 (midazolam), human liver microsomes 0.1 mg/mL, 5 μM midazolam, 10 min; for CYP3A4 inhibition in comparison with solithromycin and ketoconazole: summary of Table 1
T1 sequence (P08684 whole entry): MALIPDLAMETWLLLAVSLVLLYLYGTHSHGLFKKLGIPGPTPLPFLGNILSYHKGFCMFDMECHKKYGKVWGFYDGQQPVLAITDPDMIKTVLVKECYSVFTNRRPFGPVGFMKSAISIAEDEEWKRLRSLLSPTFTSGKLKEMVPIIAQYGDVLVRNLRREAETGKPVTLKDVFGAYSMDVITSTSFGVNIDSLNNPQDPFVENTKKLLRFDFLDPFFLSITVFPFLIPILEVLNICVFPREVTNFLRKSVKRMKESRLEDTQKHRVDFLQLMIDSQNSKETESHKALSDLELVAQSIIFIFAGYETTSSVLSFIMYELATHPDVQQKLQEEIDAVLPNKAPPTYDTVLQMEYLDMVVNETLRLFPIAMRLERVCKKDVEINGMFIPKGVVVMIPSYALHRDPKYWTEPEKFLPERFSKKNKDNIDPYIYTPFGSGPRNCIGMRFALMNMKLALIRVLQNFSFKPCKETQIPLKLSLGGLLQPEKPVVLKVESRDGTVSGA
Description: (§8) Cytochrome P4503A4 Inhibition Assay for Determining IC50
(§9) The potential of the compound to inhibit CYP 3A4 was tested by the LC-MS/MS based probe substrate method using human liver microsomes. Midazolam or testosterone, which are metabolized to hydroxymidazolam or hydroxytestosterone by CYP 3A4, were the probe substrates used. […] NADPH was added as the cofactor. […] After incubation for ten minutes, the amount of 1-hydroxymidazolam or 6β-hydroxyltestosterone formed was determined by LC-MS/MS method as a measure of enzyme activity. Percent inhibition of enzyme activity was calculated based on the amount of metabolites (1-hydroxymidazolam or 6β-hydroxyltestosterone) formed for each sample relative to the basal control and plotted in a curve versus the compound concentration to obtain the IC50.

CYP3A = conditions: in vitro, cited from earlier work
CYP3A4 [9] = target: T1, CYP3A4; conditions: background statement; cited from earlier work
P-gp = P-gp (Homo sapiens, UniProt P08183); conditions: background statement; cited from earlier work
Chain of P-gp (P08183 whole entry): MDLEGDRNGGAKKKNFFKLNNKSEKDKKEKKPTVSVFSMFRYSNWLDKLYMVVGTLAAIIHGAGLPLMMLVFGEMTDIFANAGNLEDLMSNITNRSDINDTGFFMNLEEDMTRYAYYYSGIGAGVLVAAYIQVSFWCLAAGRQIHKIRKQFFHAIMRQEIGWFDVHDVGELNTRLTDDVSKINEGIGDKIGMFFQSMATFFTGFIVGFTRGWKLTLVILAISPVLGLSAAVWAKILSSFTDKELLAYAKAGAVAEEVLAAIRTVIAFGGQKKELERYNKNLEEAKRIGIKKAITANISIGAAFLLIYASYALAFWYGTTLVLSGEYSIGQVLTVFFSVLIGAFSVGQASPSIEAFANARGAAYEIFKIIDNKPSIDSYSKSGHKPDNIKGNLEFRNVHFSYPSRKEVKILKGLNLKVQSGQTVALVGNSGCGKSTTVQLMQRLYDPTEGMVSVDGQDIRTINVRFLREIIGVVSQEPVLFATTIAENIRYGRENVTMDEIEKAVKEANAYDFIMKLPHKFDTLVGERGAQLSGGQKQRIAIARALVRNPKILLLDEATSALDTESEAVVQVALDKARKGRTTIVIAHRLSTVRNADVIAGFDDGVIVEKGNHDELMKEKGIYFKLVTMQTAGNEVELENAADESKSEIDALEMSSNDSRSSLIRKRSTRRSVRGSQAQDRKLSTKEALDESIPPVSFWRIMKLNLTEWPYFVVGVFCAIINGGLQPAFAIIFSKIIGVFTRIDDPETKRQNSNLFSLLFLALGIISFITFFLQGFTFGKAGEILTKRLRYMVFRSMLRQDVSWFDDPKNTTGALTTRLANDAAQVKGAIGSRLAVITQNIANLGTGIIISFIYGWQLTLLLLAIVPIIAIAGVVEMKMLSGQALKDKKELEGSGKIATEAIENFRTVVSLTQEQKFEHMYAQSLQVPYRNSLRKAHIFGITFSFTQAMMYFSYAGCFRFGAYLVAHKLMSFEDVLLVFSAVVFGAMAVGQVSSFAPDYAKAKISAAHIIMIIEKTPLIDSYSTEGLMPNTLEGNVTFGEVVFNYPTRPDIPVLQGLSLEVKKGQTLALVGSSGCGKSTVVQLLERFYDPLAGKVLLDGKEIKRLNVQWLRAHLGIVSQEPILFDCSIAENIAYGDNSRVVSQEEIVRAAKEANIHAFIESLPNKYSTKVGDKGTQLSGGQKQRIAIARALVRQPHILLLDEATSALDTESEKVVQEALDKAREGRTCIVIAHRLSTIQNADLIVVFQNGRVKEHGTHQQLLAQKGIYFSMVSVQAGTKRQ

CYP3A4 [10] = target: T1, CYP3A4; test: biochemical
Description: as §8, §9

Compound	MIC Strep. Pneumoniae ATCC49619 QC strain [1] [µg/mL]	MIC Strep. Pneumoniae AUCC 479 penS, macS [2] [µg/mL]	MIC Strep. Pneumoniae AUCC 488 penR, macR M or iMLS [3] [µg/mL]	MIC Strep. Pneumoniae AUCC 489 penR, macR cMLS [4] [µg/mL]	MIC Strep. Pneumoniae AUCC 483 penS, macR cMLS [5] [µg/mL]	time drug level in the lungs remained elevated ([6]; lungs, after a single oral treatment)	oral bioavailability ([6]; oral)	tissue distribution ([6]; oral)	efficacy in mouse lung infection models [7]	IC50 (CYP3A4 [8]) [µM]	CYP3A4 inhibition in comparison with solithromycin and ketoconazole (CYP3A4 [8])	IC50 (CYP3A; Katz et al / FDA briefing document, read-out: IC50 of CYP3A-dependent nifedipine oxidation) [µM]	IC50 of CYP3A-dependent nifedipine oxidation (CYP3A; same value in ng/mL) [µg/mL]	inhibition of CYP3A4 (CYP3A4 [9])	MIC ([1]; Streptococcus pneumoniae, ATCC49619 QC strain, read-out: MIC Strep. Pneumoniae ATCC49619 QC strain) [µg/mL]	inhibition of P-gp (P-gp)	IC50 (CYP3A4 [10])
(3aS,4R,7R,9R,10R,11R,13R,15R,15aR)-10-{[(2S,3R,4S,6R)-4-(dimethylamino)3-hydroxy-6-methyloxan-2-yl]oxy}-1-[3-(dimethylamino)propyl]-4-ethyl-3a,7,9,11,13,15-hexamethyl-11-{[(2E)-3-(quinolin-3-yl)prop-2-en-1-yl]oxy}tetradecahydro-1H-oxacyclotetradeca[4,3-d][1,3]oxazole-2,6,8,14-tetrone [Compound 13B]	0.015 to 0.03	0.008 to 0.015	0.12 to 0.25	0.12 to 0.25	0.12 to 0.25	at least 8 hours	excellent	excellent	demonstrated efficacy	6.4	lower IC50 inhibition of CYP3A4 inhibition						
(3aS,4R,7R,9R,10R,11R,13R,15R,15aR)-10-{[(2S,3R,4S,6R)-4-(dimethylamino)-3-hydroxy-6-methyloxan-2-yl]oxy}-4-ethyl-3a,7,9,11,13,15-hexamethyl-1-[2-(pyrrolidin-1-yl)ethyl]-11-{[(2E)-3-(quinolin-3-yl)prop-2-en-1-yl]oxy}-tetradecahydro-1H-oxacyclotetradeca[4,3-d][1,3]oxazole-2,6,8,14-tetrone [Compound 13I]	0.03 to 0.06	0.015 to 0.03	0.25 to 0.5	0.25 to 1	0.25 to 1					2.1	lower IC50 inhibition of CYP3A4 inhibition						
CC[C@H]1OC(=O)[C@H](C)C(=O)[C@H](C)[C@@H](O[C@@H]2O[C@H](C)C[C@H](N(C)C)[C@H]2O)[C@](C)(OC/C=C/c2cnc3ccccc3c2)C[C@@H](C)C(=O)[C@H](C)[C@H]2N(CC3CCN(C)CC3)C(=O)O[C@]12C [Compound 13L, (3aS,4R,7R,9R,10R,11R,13R,15R,15aR)-10-{[(2S,3R,4S,6R)-4-(dimethylamino)-3-hydroxy-6-methyloxan-2-yl]oxy}-4-ethyl-3a,7,9,11,13,15-hexamethyl-1-[(1-methylpiperidin-4-yl)methyl]-11-{[(2E)-3-(quinolin-3-yl)prop-2-en-1-yl]oxy}-tetradecahydro-1H-oxacyclotetradeca[4,3-d][1,3]oxazole-2,6,8,14-tetrone]	0.06 (≈ 0.0684 µM)	0.03 (≈ 0.0342 µM)	0.5 to 1	0.5 to 1	0.5 to 1					6.3	lower IC50 inhibition of CYP3A4 inhibition						
(3aS,4R,7R,9R,10R,11R,13R,15R,15aR)-10-{[(2S,3R,4S,6R)-4-(dimethylamino)-3-hydroxy-6-methyloxan-2-yl]oxy}-1-[2-(dimethylamino)ethyl]-4-ethyl-3a,7,9,11,13,15-hexamethyl-11-{[(2E)-3-(quinolin-3-yl)prop-2-en-1-yl]oxy}-tetradecahydro-1H-oxacyclotetradeca[4,3-d][1,3]oxazole-2,6,8,14-tetrone [Compound 13F, reference compound]	0.015 to 0.06	0.0015	0.25	0.12 to 0.25	0.25 to 0.5					1.1							
(3aS,4R,7R,9R,10R,11R,13R,15R,15aR)-10-{[(2S,3R,4S,6R)-4-(dimethylamino)-3-hydroxy-6-methyloxan-2-yl]oxy}-4-ethyl-1-{[(2R)-1-ethylpyrrolidin-2-yl]methyl}-3a,7,9,11,13,15-hexamethyl-11-{[(2E)-3-(quinolin-3-yl)prop-2-en-1-yl]oxy}-tetradecahydro-1H-oxacyclotetradeca[4,3-d][1,3]oxazole-2,6,8,14-tetrone [Compound 13D]	0.03 to 0.06	0.015 to 0.03	0.25 to 0.5	0.12 to 0.25	0.25 to 0.5					2.9	lower IC50 inhibition of CYP3A4 inhibition						
CC[C@H]1OC(=O)[C@H](C)C(=O)[C@H](C)[C@@H](O[C@@H]2O[C@H](C)C[C@H](N(C)C)[C@H]2O)[C@](C)(OC/C=C/c2cnc3ccccc3c2)C[C@@H](C)C(=O)[C@H](C)[C@H]2N(CC#N)C(=O)O[C@]12C [Compound 13H, 2-[(3aS,4R,7R,9R,10R,11R,13R,15R,15aR)-10-{[(2S,3R,4S,6R)-4-(dimethylamino)-3-hydroxy-6-methyloxan-2-yl]oxy}-4-ethyl-3a,7,9,11,13,15-hexamethyl-2,6,8,14-tetraoxo-11-{[(2E)-3-(quinolin-3-yl)prop-2-en-1-yl]oxy}-tetradecahydro-1H-oxacyclotetradeca[4,3-d][1,3]oxazol-1-yl]acetonitrile]	0.03 to 0.06	0.008 to 0.015	0.25 to 1	0.25 to 1	2 to 4					1.9	lower IC50 inhibition of CYP3A4 inhibition						
(3aS,4R,7R,9R,10R,11R,13R,15R,15aR)-10-{[(2S,3R,4S,6R)-4-(dimethylamino)-3-hydroxy-6-methyloxan-2-yl]oxy}-4-ethyl-3a,7,9,11,13,15-hexamethyl-1-[3-(morpholin-4-yl)propyl]-11-{[(2E)-3-(quinolin-3-yl)prop-2-en-1-yl]oxy}-tetradecahydro-1H-oxacyclotetradeca[4,3-d][1,3]oxazole-2,6,8,14-tetrone [Compound 13J]	0.06 to 0.12	0.03 to 0.06	1	1 to 2.0	0.5 to 2					5.9	lower IC50 inhibition of CYP3A4 inhibition						
CC[C@H]1OC(=O)[C@H](C)C(=O)[C@H](C)[C@@H](O[C@@H]2O[C@H](C)C[C@H](N(C)C)[C@H]2O)[C@](C)(OC/C=C/c2cnc3ccccc3c2)C[C@@H](C)C(=O)[C@H](C)[C@H]2NC(=O)O[C@@]21C [cethromycin]												0.63	0.4825	strong inhibition			
CC[C@H]1OC(=O)[C@@](C)(F)C(=O)[C@H](C)[C@@H](O[C@@H]2O[C@H](C)C[C@H](N(C)C)[C@H]2O)[C@](C)(OC)C[C@@H](C)C(=O)[C@H](C)[C@H]2N(CCCCn3cc(-c4cccc(N)c4)nn3)C(=O)O[C@]12C [solithromycin, reference compound]		0.004 to 0.015	0.06 to 0.25	0.004 to 0.008	0.008 to 0.015									strong inhibitor	0.004 to 0.015 (≈ 0.00473 to 0.0178 µM)	moderate inhibitor	0.4 µM and 1.49 µM
